Source: US8431140B2, “Topical compositions” (priority 2006, dated 2013)

Tests used:
[1] = Flux of acyclovir gels with different drug concentrations (saturation flux comparison); type: in vitro ADME; conditions: in the vehicle of Table 10a
[2] = intravenous administration of 7.5-10 mg three times daily; cited from earlier work

Acyclovir concentration giving a saturated formulation post-evaporation [1]: 0.06 % (w/w)
SMILES: Nc1nc2c(ncn2COCCO)c(=O)[nH]1 [acyclovir]
Serum concentrations of acyclovir [2]: 5000 to 10000 ng/mL
